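These data come from cells grown in 96-well plates and exposed to compound for 48 hours at five concentrations. TGI: total growth inhibition.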

This is an account of results in PubChem BioAssay (NCI).

Common to all, as to assay: inhibition of tumour cell growth, NCI panel, 48 h
Assay [1] concerns A549 NSCLC.
For assay [2], the system named is HCT-15 colon.
In assay [3] the test system is SR leukemia.
In assay [4] the test system is M14 melanoma.
The subject of assay [5] is HCT-116 colon.
For assay [6], the system named is NCI-H226 lung.
The subject of assay [7] is UO-31 renal.
Assay [8] relates to CCRF-CEM leukemia.
The test system of assay [9] is A498 renal.
The test system of assay [10] is SK-MEL-2 melanoma.
Assay [11] relates to SN12C renal.
For assay [12], the system named is MCF7 breast.
Assay [13] deals with EKVX NSCLC.
Assay [14] relates to HCC-2998 colon.
Assay [15] relates to SK-MEL-5 melanoma.
Assay [16] relates to TK-10 renal.
Assay [17] concerns SF-539 CNS.
Assay [18] deals with ACHN renal.
Assay [19] concerns UACC-62 melanoma.
Assay [20] deals with SF-268 CNS.

Regarding `CNC(=O)N1N[C@H](c2ccccc2)[C@@H]1c1ccccc1`, the TGI is more than 100 µM in [1]; 64 µM in assay [2]; 58.4 µM in assay [3]; 56.1 µM in assay [4]; 36.3 µM in [5]; 32.8 µM in assay [6]. Moreover, the TGI in assay [7] is 74.4 µM; in assay [8] it was more than 100 µM; in assay [9], 55.4 µM; in assay [10], 32 µM; in assay [11] it was 62.7 µM; in [12] it was 62.5 µM. The TGI in assay [13] was 85.6 µM; in assay [14], 68.8 µM; in assay [15], 32.8 µM; in [16] it was more than 100 µM; in assay [17], 33.3 µM; in [18], more than 100 µM. This molecule registered a TGI in assay [19] of 26.8 µM.
`COC1=C2CC(C)CC(OC)C(OC(=O)CCCN)C(C)/C=C(\C)C(OC(N)=O)C(OC)/C=C\C=C(/C)C(=O)NC(=CC1=O)C2=O` (centres undefined): the TGI in assay [1] is 55.1 µM; in assay [2] it was 14.5 µM; in [3], 21.5 µM; in assay [4] it was 17.6 µM; in assay [5], 15.9 µM; in assay [6], 33.3 µM. Besides, the TGI in assay [7] is 23.1 µM; in [8], 3.59 µM; in [9] it was 30.6 µM; in assay [10], 26.9 µM; in assay [11], 16.1 µM; in assay [12] it was 13.2 µM. For the same molecule, the TGI in assay [13] worked out at 26.6 µM; in assay [14], 19.4 µM; in [15], 22.4 µM; in assay [16] it was 20.2 µM; in assay [20], 24.6 µM; in assay [17] it was 16.9 µM. Further, the TGI was found to be 17.8 µM in assay [18] and 18.7 µM in assay [19].
Regarding `O=[N+]([O-])C(=C/c1cccc2ccccc12)/C(=C\c1cccc2ccccc12)[N+](=O)[O-]`, the TGI was more than 58.6 µM in assay [1]; 3.95 µM in [2]; 9.03 µM in [3]; 11.3 µM in assay [4]; 7.2 µM in [5]; 13.7 µM in [6]. Moreover, the TGI came out at 3.66 µM in [7]; 4.77 µM in assay [8]; 33.5 µM in assay [9]; 55.3 µM in assay [10]; 6.55 µM in [11]; 16.8 µM in [12]. Also, the TGI stood at 11.6 µM in assay [13]; 5.41 µM in assay [14]; 6.45 µM in assay [15]; 4.65 µM in assay [16]; 7.67 µM in assay [20]; 5.63 µM in assay [17]. In addition, the TGI was determined as 4.21 µM in assay [18] and 3.23 µM in assay [19].
Take `C#CCNC(=O)NC(CCCCNC(=O)OCc1ccccc1)C(=O)OCc1ccccc1` (centres undefined): the TGI in assay [1] was more than 100 µM; in assay [2], more than 100 µM; in assay [3], more than 100 µM; in assay [4], 58.4 µM; in assay [5], more than 100 µM; in assay [6] it was more than 100 µM. For the same molecule, the TGI in assay [7] is 44.6 µM; in assay [8], more than 100 µM; in assay [9] it was 53.6 µM; in assay [10], more than 75.8 µM; in [11], more than 81.1 µM; in assay [12], more than 100 µM. For the same molecule, the TGI in assay [13] is more than 100 µM; in assay [14], more than 74.1 µM; in assay [15] it was 35.1 µM; in assay [16], more than 93 µM; in assay [20] it was more than 100 µM; in assay [17], 71.9 µM. In addition, the TGI in [18] was more than 100 µM; in [19] it was 33.6 µM.
Take `O=c1[nH]c2nc[nH]c2c(=O)n1C1CCCCC1`: the TGI in assay [1], in [2], in [3], in assay [4], in [5] and in assay [6] was more than 100 µM throughout. Moreover, the TGI in [7], in assay [8], in assay [9], in [10], in [11] and in assay [12] was more than 100 µM throughout. For the same molecule, the TGI in assay [13], in [14], in assay [15], in assay [16], in assay [20] and in assay [17] was more than 100 µM each time. Also, the TGI in assay [18] and in assay [19] was more than 100 µM in each case.
For `c1n[nH]cc1C12C3C4C5C3C1C5C42` (centres undefined), the TGI in [1], in assay [2], in [3], in assay [4], in [5] and in [6] was more than 100 µM throughout. Besides, the TGI in assay [7], in [8], in assay [9], in assay [10], in [11] and in assay [12] was more than 100 µM throughout. Further, the TGI in [13], in assay [14], in [15], in assay [16], in [20] and in assay [17] was more than 100 µM in each case. Moreover, the TGI in assay [18] and in assay [19] was more than 100 µM each time.
For `Cc1ccc(S(=O)(=O)N2CC(CCN)c3ccccc32)cc1` (centres undefined), the TGI in assay [1] is 32.5 µM; in [2], more than 100 µM; in assay [3], more than 100 µM; in assay [4] it was 8.4 µM; in assay [5], 25.6 µM; in [6], 11.6 µM. Besides, the TGI in assay [7] is 27.4 µM; in [8], more than 100 µM; in assay [9] it was 40.6 µM; in assay [10] it was 13.4 µM; in [11] it was 10.7 µM; in assay [12], 29.8 µM. Also, the TGI was 82.4 µM in assay [13]; 30.3 µM in [14]; 17.7 µM in [15]; more than 51.1 µM in assay [16]; 23.8 µM in [20]; 8.59 µM in [17]. Moreover, the TGI was more than 53.2 µM in [18] and 11.7 µM in [19].
